Source: paper PMC10895799, “Differential contribution of THIK-1 K^+ channels and P2X7 receptors to ATP-mediated neuroinflammation by human microglia” (Journal of Neuroinflammation, 2024)

Key:
Assay type in all cases: cell-based
[1] = target: T1, THIK-1 (mKCNK13) (Mus musculus, UniProt Q8R1P5); assay: FLIPR thallium flux in HEK293 cells; patch clamp of WT and THIK-1 KO microglia
T1 construct: gene Kcnk13
T1 sequence (Q8R1P5 1-405): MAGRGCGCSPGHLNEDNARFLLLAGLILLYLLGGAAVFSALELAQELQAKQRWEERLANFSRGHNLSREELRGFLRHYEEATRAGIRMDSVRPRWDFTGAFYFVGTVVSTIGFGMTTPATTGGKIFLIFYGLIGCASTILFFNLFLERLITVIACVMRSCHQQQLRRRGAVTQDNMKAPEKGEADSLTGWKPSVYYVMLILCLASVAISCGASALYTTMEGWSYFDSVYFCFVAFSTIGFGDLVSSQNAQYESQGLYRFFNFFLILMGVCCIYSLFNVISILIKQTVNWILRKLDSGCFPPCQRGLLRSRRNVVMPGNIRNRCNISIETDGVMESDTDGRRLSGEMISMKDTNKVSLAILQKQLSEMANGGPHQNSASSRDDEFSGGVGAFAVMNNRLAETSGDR

[2] = target: T2, THIK-1 (hKCNK13) (Homo sapiens, UniProt Q9HB14); assay: radioligand displacement on HEK-hKCNK13 membranes; IC50 from FLIPR thallium flux in HEK293; QPatch IC50 […]
T2 construct: gene KCNK13
T2 sequence (Q9HB14 1-408): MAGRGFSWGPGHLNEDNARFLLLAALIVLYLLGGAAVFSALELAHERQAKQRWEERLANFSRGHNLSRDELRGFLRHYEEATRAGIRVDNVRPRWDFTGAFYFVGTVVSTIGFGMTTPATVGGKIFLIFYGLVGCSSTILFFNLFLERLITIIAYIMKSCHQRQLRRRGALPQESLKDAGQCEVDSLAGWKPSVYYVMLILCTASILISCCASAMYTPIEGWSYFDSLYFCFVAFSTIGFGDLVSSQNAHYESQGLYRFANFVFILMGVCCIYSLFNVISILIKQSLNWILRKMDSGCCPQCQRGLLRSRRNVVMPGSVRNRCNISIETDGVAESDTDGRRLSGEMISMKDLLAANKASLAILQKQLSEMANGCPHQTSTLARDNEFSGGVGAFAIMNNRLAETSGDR

[3] = target: T2, THIK-1 (hKCNK13); assay: reference blocker in FLIPR thallium flux and QPatch assays of hTHIK-1 HEK cells

## COc1ncc(Cl)cc1C(=O)N(C)Cc1cccc(F)c1 [C100814]
[1]
  IC50: 61 nM
[2]
  IC50: 71 nM

## CCCCC[N+](CCCCC)(CCCCC)CCCCC [tetrapentylammonium]
[3]
  reference blocker in FLIPR thallium flux and QPatch assays of hTHIK-1 HEK cells: normalised to controls using the nonselective THIK-1 antagonist tetrapentylammonium (TPA)
